# Test results as given in the NIST ThermoML archive (doi:10.1021/je2000205).
# Numbers after ± are expanded uncertainties.
# Assay: mn = molality of the nth substance listed, in mol/kg
# Details: 100 kPa, Liquid; for viscosity: Capillary tube (Ostwald / Ubbelohde) method; for speed of sound: Sing-around technique in a fixed-path interferometer; for mass density: Vibrating tube method
SMILES,"viscosity (298.15 K, m1 = 1.13)","speed of sound (298.15 K, m1 = 1.13)","viscosity (303.15 K, m1 = 1.13)","speed of sound (303.15 K, m1 = 1.13)","viscosity (308.15 K, m1 = 1.13)","speed of sound (308.15 K, m1 = 1.13)","viscosity (313.15 K, m1 = 1.13)","speed of sound (313.15 K, m1 = 1.13)","viscosity (318.15 K, m1 = 1.13)","speed of sound (318.15 K, m1 = 1.13)","viscosity (323.15 K, m1 = 1.13)","speed of sound (323.15 K, m1 = 1.13)",also measured
O=C[C@H](O)[C@@H](O)[C@H](O)[C@H](O)CO [D-glucose] + O,1.489 ± 0.15 mPa·s,1564.8 ± 1.4 m/s,1.278 ± 0.13 mPa·s,1574.3 ± 1.3 m/s,1.147 ± 0.12 mPa·s,1582.4 ± 1.3 m/s,0.9944 ± 0.1 mPa·s,1589.1 ± 1.3 m/s,0.9095 ± 0.091 mPa·s,1594.4 ± 1.3 m/s,0.8291 ± 0.083 mPa·s,1598.5 ± 1.4 m/s,"mass density (298.15 K, m1 = 1.13): 1065.07 ± 0.12 kg/m3; mass density (303.15 K, m1 = 1.13): 1063.3 ± 0.11 kg/m3; mass density (308.15 K, m1 = 1.13): 1061.36 ± 0.1 kg/m3; mass density (313.15 K, m1 = 1.13): 1059.24 ± 0.1 kg/m3; mass density (318.15 K, m1 = 1.13): 1056.98 ± 0.1 kg/m3; mass density (323.15 K, m1 = 1.13): 1054.25 ± 0.12 kg/m3"
OC[C@H]1O[C@@](CO)(O[C@H]2O[C@H](CO)[C@@H](O)[C@H](O)[C@H]2O)[C@@H](O)[C@@H]1O [D-sucrose] + O,2.716 ± 0.27 mPa·s,1607.9 ± 1.4 m/s,2.376 ± 0.24 mPa·s,1615.6 ± 1.3 m/s,2.075 ± 0.21 mPa·s,1621.9 ± 1.3 m/s,1.795 ± 0.18 mPa·s,1627 ± 1.3 m/s,1.587 ± 0.16 mPa·s,1630.8 ± 1.3 m/s,1.394 ± 0.14 mPa·s,1633.3 ± 1.4 m/s,"mass density (298.15 K, m1 = 1.27): 1127.37 ± 0.18 kg/m3; mass density (303.15 K, m1 = 1.27): 1125.37 ± 0.17 kg/m3; mass density (308.15 K, m1 = 1.27): 1123.2 ± 0.17 kg/m3; mass density (313.15 K, m1 = 1.27): 1120.73 ± 0.17 kg/m3; mass density (318.15 K, m1 = 1.27): 1118.18 ± 0.16 kg/m3; mass density (323.15 K, m1 = 1.27): 1115.44 ± 0.17 kg/m3"
